The text below walks through data of patent US20240383954A1, “PEPTIDE INHIBITORS OF INTERLEUKIN-23 RECEPTOR AND THEIR USE TO TREAT INFLAMMATORY DISEASES” (Janssen Biotech, Inc., priority 2020, published 2024).

Starred links: 1 amine or outer side, 2 acyl side, 3 side chain; linkers in the order of their positions; H or OH if unused. Positions of bridges follow the written chain, without caps; N, C: chain ends. Non-standard residues stand in square brackets, D forms with d. Residues, ends and D or L forms follow the SMILES beside them. Trp(7-Ph) = N[C@@H](Cc1c[nH]c2c(-c3ccccc3)cccc12)C(=O)O; Trp(7-Me) = Cc1cccc2c(C[C@H](N)C(=O)O)c[nH]c12; Phe(3R-Me) = C[C@H](c1ccccc1)[C@H](N)C(=O)O; Abu(4-yl) = O=C([C@H](CC[*:3])N[*:1])[*:2]; dPhe(4-NH2) = Nc1ccc(C[C@@H](N)C(=O)O)cc1; 2Nal = N[C@@H](Cc1ccc2ccccc2c1)C(=O)O; AEF = NCCOc1ccc(C[C@H](N)C(=O)O)cc1; αMeF = C[C@](N)(Cc1ccccc1)C(=O)O; Pen = CC(C)(S)[C@H](N)C(=O)O; αMeK = C[C@](N)(CCCCN)C(=O)O; αMeC = C[C@](N)(CS)C(=O)O; dDap = NC[C@@H](N)C(=O)O; Thp = NC1(C(=O)O)CCOCC1; Ac3c = NC1(C(=O)O)CC1

The target in one experiment is T1, IL-23R (Homo sapiens, UniProt Q5VWK5). In words: cell-based.
T1 sequence (Q5VWK5 24-629): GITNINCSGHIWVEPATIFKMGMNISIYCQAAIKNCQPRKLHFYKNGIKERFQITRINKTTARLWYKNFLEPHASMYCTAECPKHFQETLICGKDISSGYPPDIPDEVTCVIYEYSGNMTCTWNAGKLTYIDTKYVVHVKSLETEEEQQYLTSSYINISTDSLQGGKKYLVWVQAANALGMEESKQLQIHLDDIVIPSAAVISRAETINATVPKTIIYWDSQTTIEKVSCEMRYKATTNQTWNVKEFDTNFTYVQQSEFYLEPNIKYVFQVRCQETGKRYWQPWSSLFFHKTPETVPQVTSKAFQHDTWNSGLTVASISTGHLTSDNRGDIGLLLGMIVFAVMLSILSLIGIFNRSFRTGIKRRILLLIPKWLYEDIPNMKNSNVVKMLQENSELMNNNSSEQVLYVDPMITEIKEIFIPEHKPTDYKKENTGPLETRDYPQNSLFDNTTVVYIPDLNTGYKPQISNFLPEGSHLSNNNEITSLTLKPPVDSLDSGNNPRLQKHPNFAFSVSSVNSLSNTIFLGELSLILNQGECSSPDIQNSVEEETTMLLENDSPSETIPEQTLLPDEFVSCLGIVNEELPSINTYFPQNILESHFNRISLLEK
Settings: not given
By IC50 is commonly meant the concentration that gives 50% inhibition. Compound `CC(=O)NCCCC[C@@H]1NC(=O)[C@H](Cc2c[nH]c3c(-c4ccccc4)cccc23)NC(=O)[C@H]([C@@H](C)O)NC(=O)[C@H](CCC(N)=O)NC(=O)[C@@H](NC(=O)[C@@H](CCCNC(=N)N)NC(C)=O)CCSC[C@@H](C(=O)N[C@@H](Cc2ccc(OCCN)cc2)C(=O)N[C@@H](Cc2ccc3ccccc3c2)C(=O)N[C@@](C)(CCCCN)C(=O)N[C@@H](CCCCNC(C)=O)C(=O)N[C@@H](CC(N)=O)C(=O)N[C@@](C)(Cc2ccccc2)C(N)=O)NC1=O` [Compound 11, Ac-[(D)Arg]-[Abu]-Q-T-[W(7-Ph)]-[Lys(Ac)]-[Cys]-Phe[4-(2-aminoethoxy)]-[2-Nal]-[a-MeLys]-[Lys(Ac)]-N-[a-MePhe]-NH2] (Ac-[dR][Abu(4-yl)]QT[Trp(7-Ph)]K(Ac)C[AEF][2Nal][αMeK]K(Ac)N[αMeF]-NH2; thioether 2-7) had an IC50 of 13.9 nM.

Regarding `CC(=O)NCCCC[C@@H]1NC(=O)[C@H](Cc2c[nH]c3c(-c4ccccc4)cccc23)NC(=O)[C@H]([C@@H](C)O)NC(=O)[C@H](CCC(N)=O)NC(=O)[C@@H](NC(C)=O)CCSC[C@@H](C(=O)N[C@@H](Cc2ccc(OCCN)cc2)C(=O)N[C@@H](Cc2ccc3ccccc3c2)C(=O)N[C@@](C)(CCCCN)C(=O)N[C@@H](CCCCNC(C)=O)C(=O)N[C@@H](CC(N)=O)C(=O)N[C@@](C)(Cc2ccccc2)C(N)=O)NC1=O` [Compound 67, Ac-[Abu]-Q-T-[W(7-Ph)]-[Lys(Ac)]-[Cys]-Phe[4-(2-aminoethoxy)]-[2-Nal]-[a-MeLys]-[Lys(Ac)]-N-[a-MePhe]-NH2] (Ac-[Abu(4-yl)]QT[Trp(7-Ph)]K(Ac)C[AEF][2Nal][αMeK]K(Ac)N[αMeF]-NH2; thioether 1-6), the midpoint of inhibition, the IC50, lay at 5.52 nM. In turn, `CC(=O)NCCCC[C@@H]1NC(=O)[C@H](Cc2c[nH]c3c(C)cccc23)NC(=O)[C@H]([C@@H](C)O)NC(=O)[C@H](CC(N)=O)NC(=O)[C@@H](NC(C)=O)C(C)(C)SSC(C)(C)[C@@H](C(=O)N[C@@H](Cc2ccc(OCCN)cc2)C(=O)N[C@@H](Cc2ccc3ccccc3c2)C(=O)N[C@@](C)(CCCCN)C(=O)N[C@@H](CCCCNC(C)=O)C(=O)N[C@@H](CC(N)=O)C(=O)N[C@H](CC(C)C)C(=O)N[C@@](C)(Cc2ccccc2)C(N)=O)NC1=O` [Compound 68, Ac-[Pen]-N-T-[W(7-Me)]-[Lys(Ac)]-[Pen]-Phe[4-(2-aminoethoxy)]-[2-Nal]-[a-MeLys]-[Lys(Ac)]-N-[(D)Leu]-[aMePhe]-am] registered an IC50 of 7 nM. Still for that read-out and setting: the result for `CC(=O)NCCCC[C@@H]1NC(=O)[C@H](Cc2c[nH]c3c(C)cccc23)NC(=O)[C@H]([C@@H](C)O)NC(=O)[C@H](CC(N)=O)NC(=O)[C@@H](NC(C)=O)C(C)(C)SSC(C)(C)[C@@H](C(=O)N[C@@H](Cc2ccc(OCCN)cc2)C(=O)N[C@@H](Cc2ccc3ccccc3c2)C(=O)N[C@@](C)(CCCCN)C(=O)N[C@@H](CCCCNC(C)=O)C(=O)N[C@@H](CC(N)=O)C(=O)N[C@H](CC(C)C)C(=O)N[C@](C)(Cc2ccccc2)C(N)=O)NC1=O` [Compound 69, Ac-[Pen]-N-T-[W(7-Me)]-[Lys(Ac)]-[Pen]-Phe[4-(2-aminoethoxy)]-[2-Nal]-[a-MeLys]-[Lys(Ac)]-N-[(D)Leu]-[(D)aMePhe]-NH2] reads 2.75 nM; that for `CC(=O)NCCCC[C@@H]1NC(=O)[C@H](Cc2c[nH]c3c(C)cccc23)NC(=O)[C@H]([C@@H](C)O)NC(=O)[C@H](CC(N)=O)NC(=O)[C@@H](NC(C)=O)C(C)(C)SSC(C)(C)[C@@H](C(=O)N[C@@H](Cc2ccc(OCCN)cc2)C(=O)N[C@@H](Cc2ccc3ccccc3c2)C(=O)N[C@@](C)(CCCCN)C(=O)N[C@@H](CCCCNC(C)=O)C(=O)N[C@@H](CC(N)=O)C(=O)NC(C)(C)C(=O)NCCCCCC(N)=O)NC1=O` [Compound 70, Ac-[Pen]-N-T-[W(7-Me)]-[Lys(Ac)]-[Pen]-Phe[4-(2-aminoethoxy)]-[2-Nal]-[a-MeLys]-[Lys(Ac)]-N-[Aib-Ahx]-NH2], 1.22 nM; that for `CC(=O)NCCCC[C@@H]1NC(=O)[C@H](Cc2c[nH]c3c(C)cccc23)NC(=O)[C@H]([C@@H](C)O)NC(=O)[C@H](CC(N)=O)NC(=O)[C@@H](NC(C)=O)C(C)(C)SSC(C)(C)[C@@H](C(=O)N[C@@H](Cc2ccc(OCCN)cc2)C(=O)N[C@@H](Cc2ccc3ccccc3c2)C(=O)N[C@@](C)(CCCCN)C(=O)N[C@@H](CCCCNC(C)=O)C(=O)N[C@@H](CC(N)=O)C(=O)NC(C)(C)C(=O)N[C@H](CC(N)=O)Cc2ccccc2)NC1=O` [Compound 71, Ac-[Pen]-N-T-[W(7-Me)]-[Lys(Ac)]-[Pen]-Phe[4-(2-aminoethoxy)]-[2-Nal]-[a-MeLys]-[Lys(Ac)]-N-[Aib]-[bhPhe]-NH2], 3.39 nM. Consider `CC(=O)NCCCC[C@@H]1NC(=O)[C@H](Cc2c[nH]c3c(C)cccc23)NC(=O)[C@@H](CN)NC(=O)[C@H](CC(N)=O)NC(=O)[C@@H](NC(C)=O)C(C)(C)SSC(C)(C)[C@@H](C(=O)N[C@@H](Cc2ccc(OCCN)cc2)C(=O)N[C@@H](Cc2ccc3ccccc3c2)C(=O)N[C@@](C)(CCCCN)C(=O)N[C@@H](CCCCNC(C)=O)C(=O)N[C@@H](CC(N)=O)C(=O)N[C@H](CC(C)C)C(N)=O)NC1=O` [Compound 72, Ac-[Pen]-N-[(D)Dap]-[W(7-Me)]-[Lys(Ac)]-[Pen]-Phe[4-(2-aminoethoxy)]-[2-Nal]-[a-MeLys]-[Lys(Ac)]-N-[(D)Leu]-NH2] (Ac-[Pen]N[dDap][Trp(7-Me)]K(Ac)[Pen][AEF][2Nal][αMeK]K(Ac)N[dL]-NH2; disulfide 1-6), for which the IC50 is 52.6 nM.

Another experiment concerns the target T1, IL-23R. In words: cell-based. The settings on record: PBMC pSTAT3 IC50 (nM), PBMCs from healthy donors, IL-23 5 ng/mL, 30 minutes, phosphorylated STAT3.
`CC(=O)NCCCC[C@@H]1NC(=O)[C@H](Cc2c[nH]c3c(C)cccc23)NC(=O)[C@H]([C@@H](C)O)NC(=O)[C@H](CC(N)=O)NC(=O)[C@@H](NC(=O)[C@@H](CCCNC(=N)N)NC(C)=O)C(C)(C)SSC(C)(C)[C@@H](C(=O)N[C@@H](Cc2ccc(OCCNC(C)=O)cc2)C(=O)N[C@@H](Cc2ccc3ccccc3c2)C(=O)NC2(C(=O)N[C@@H](CCC(=O)O)C(=O)N[C@@H](CC(N)=O)C(=O)NC3(C(N)=O)CCOCC3)CC2)NC1=O` [Compound 308, MeCO-r-Pen-N-T-7MeW-K(Ac)-Pen-AEF(Ac)-2Nal-Acpx-E-N-THP-CONH2] (Ac-[dR][Pen]NT[Trp(7-Me)]K(Ac)[Pen][AEF](Ac)[2Nal][Ac3c]EN[Thp]-NH2; disulfide 2-7) gave an IC50 of 8 nM.

For `CC(=O)NCCCC[C@@H]1NC(=O)[C@H](Cc2c[nH]c3c(C)cccc23)NC(=O)[C@H]([C@@H](C)O)NC(=O)[C@H](CC(N)=O)NC(=O)[C@@H](NC(=O)[C@@H](CCCNC(=N)N)NC(C)=O)CSSC[C@@](C)(C(=O)N[C@@H](Cc2ccc(OCCN)cc2)C(=O)N[C@@H](Cc2ccc3ccccc3c2)C(=O)NC2(C(=O)N[C@@H](CCC(=O)O)C(=O)N[C@@H](CC(N)=O)C(=O)NC3(C(N)=O)CCOCC3)CC2)NC1=O` [Compound 310, MeCO-r-C-N-T-7MeW-K(Ac)- aMeC-AEF-2Nal-Acpx-E-N-THP-CONH2] (Ac-[dR]CNT[Trp(7-Me)]K(Ac)[αMeC][AEF][2Nal][Ac3c]EN[Thp]-NH2; disulfide 2-7), the IC50 amounted to 9.9 nM. Still for that read-out and setting: then `CC(=O)NCCCC[C@@H]1NC(=O)[C@H](Cc2c[nH]c3c(C)cccc23)NC(=O)[C@H]([C@@H](C)O)NC(=O)[C@H](CC(N)=O)NC(=O)[C@@H](NC(C)=O)C(C)(C)SSC(C)(C)[C@@H](C(=O)N[C@@H](Cc2ccc(OCCN)cc2)C(=O)N[C@@H](Cc2ccc3ccccc3c2)C(=O)N[C@@](C)(CCCCN)C(=O)N[C@@H](CCCCNC(C)=O)C(=O)N[C@@H](CC(N)=O)C(=O)N[C@H](C(N)=O)[C@H](C)c2ccccc2)NC1=O` [Compound 312, MeCO-Pen-N-T-7MeTrp-K(Ac)-Pen-AEF-2Nal-aMeK-K(Ac)-N-bMePhe(S,R)-CONH2], with 90 nM; and `CC(=O)NCCCC[C@@H]1NC(=O)[C@H](Cc2c[nH]c3c(C)cccc23)NC(=O)[C@H]([C@@H](C)O)NC(=O)[C@H](CC(N)=O)NC(=O)[C@@H](NC(=O)[C@@H](CCCNC(=N)N)NC(C)=O)C(C)(C)SSC(C)(C)[C@@H](C(=O)N[C@@H](Cc2ccc(OCCN)cc2)C(=O)N[C@@H](Cc2ccc3ccccc3c2)C(=O)NC2(C(=O)N[C@@H](CCC(=O)O)C(=O)N[C@@H](CC(N)=O)C(=O)N[C@H](C(N)=O)[C@H](C)c3ccccc3)CCOCC2)NC1=O` [Compound 313, MeCO-r-Pen-N-T-7MeTrp-K(Ac)-Pen-AEF-2Nal-THP-E-N-bMePhe(S,R)---CONH2] (Ac-[dR][Pen]NT[Trp(7-Me)]K(Ac)[Pen][AEF][2Nal][Thp]EN[Phe(3R-Me)]-NH2; disulfide 2-7), with 21 nM; and `CC(=O)NCCCC[C@@H]1NC(=O)[C@H](Cc2c[nH]c3c(C)cccc23)NC(=O)[C@H]([C@@H](C)O)NC(=O)[C@H](CC(N)=O)NC(=O)[C@@H](NC(=O)[C@@H](CCCNC(=N)N)NC(C)=O)C(C)(C)SSC(C)(C)[C@@H](C(=O)N[C@@H](Cc2ccc(OCCN)cc2)C(=O)N[C@@H](Cc2ccc3ccccc3c2)C(=O)NC2(C(=O)N[C@@H](CCC(=O)O)C(=O)N[C@@H](CC(N)=O)C(=O)N[C@@H](Cc3c[nH]cn3)C(=O)N[C@H](Cc3ccc(N)cc3)C(N)=O)CC2)NC1=O` [Compound 315, MeCO-r-Pen-N-T-7MeW-K(Ac)-Pen-AEF-2Nal-Acpx-E-N-H-4AmDPhe---CONH2] (Ac-[dR][Pen]NT[Trp(7-Me)]K(Ac)[Pen][AEF][2Nal][Ac3c]ENH[dPhe(4-NH2)]-NH2; disulfide 2-7), with 2 nM.

For the compound `CC(=O)NCCCC[C@@H]1NC(=O)[C@H](Cc2c[nH]c3c(C)cccc23)NC(=O)[C@H]([C@@H](C)O)NC(=O)[C@H](CC(N)=O)NC(=O)[C@@H](NC(C)=O)C(C)(C)SSC(C)(C)[C@@H](C(=O)N[C@@H](Cc2ccc(OCCN)cc2)C(=O)N[C@@H](Cc2ccc3ccccc3c2)C(=O)NC2(C(=O)N[C@@H](CCC(=O)O)C(=O)N[C@@H](CC(N)=O)C(=O)NC3(C(N)=O)CCOCC3)CC2)NC1=O` [Compound 317, MeCO-Pen-N-T-7MeW-K(Ac)-Pen-AEF-2Nal-Acpx-E-N-THP---CONH2], the concentration for half-maximal inhibition (IC50) is 13 nM.
